# Assay results taken from patent US20060166985A1, “Pyrrolydin-2-one derivatives as inhibitors of thrombin and factor xa” (priority 2002, published 2006).
# Target: human Thrombin (Homo sapiens, UniProt P00734)
# Assay: In vitro assay for inhibition of Thrombin (chromogenic or fluorogenic assay)
# Format: biochemical
# Conditions: Example 2 chromogenic assay, other Examples fluorogenic assay, read-out: thrombin inhibitory Ki
row,Structure (SMILES),Ki [nM]
1,COC[C@@H](C(=O)N1CCOCC1)N1CC[C@H](NS(=O)(=O)CC(=O)c2ccc(Cl)cc2)C1=O [Example 52],< 50
2,"C[C@@H](C(=O)N1CCOCC1)N1CC[C@H](NS(=O)(=O)/C=C/c2ccc(Cl)cc2)C1=O [(E)-2-(4-chlorophenyl)-N-{(3S)-1-[(1S)-1-methyl-2-morpholin-4-yl-2-oxoethyl]-2-oxopyrrolidin-3-yl}ethenesulfonamide, reference compound]",> 200
3,"C/C(=C\S(=O)(=O)N[C@H]1CCN([C@@H](CCN2CCOCC2)C(=O)N2CCOCC2)C1=O)c1ccc(Cl)s1 [Example 96, (1E)-2-(5-chloro-2-thienyl)-N-{(3S)-1-[(1S)-3-(4-morpholinyl)-1-(4-morpholinylcarbonyl)propyl]-2-oxo-3-pyrrolidinyl}-1-propene-1-sulfonamide]",< 50
4,"COC[C@@H](C(=O)N1CCOCC1)N1CC[C@H](NS(=O)(=O)C[C@@H]2CCc3cc(Cl)ccc32)C1=O [Example 68, 1-[(1R)-5-chloro-2,3-dihydro-1H-inden-1-yl]-N-{(3S)-1-[(1S)-1-[(methyloxy)methyl]-2-(4-morpholinyl)-2-oxoethyl]-2-oxo-3-pyrrolidinyl}methanesulfonamide]",< 50
5,"CC[C@H](C)[C@@H](C(=O)N1CCOCC1)N1CC[C@H](NS(=O)(=O)/C=C(\C)c2ccc(Cl)s2)C1=O [Example 11, (1E)-2-(5-chlorothien-2-yl)-N-{(3S)-1-[(1S,2S)-2-methyl-1-(morpholin-4-ylcarbonyl)butyl]-2-oxopyrrolidin-3-yl}prop-1-ene-1-sulfonamide]",< 10
6,"CC[C@H](C)[C@@H](C(=O)N1CCOCC1)N1CC[C@H](N(C)S(=O)(=O)CCc2ccc(Cl)s2)C1=O [Example 38, 2-(5-chlorothien-2-yl)-N-methyl-N-{(3S)-1-[(1S,2S)-2-methyl-1-(morpholin-4-ylcarbonyl)butyl]-2-oxopyrrolidin-3-yl}ethanesulfonamide]",< 10
7,"C[C@@H](C(=O)N1CCOCC1)N1CC[C@H](NS(=O)(=O)/C=C(\F)c2ccc(Cl)cc2)C1=O [Example 28, (Z)-2-(4-chlorophenyl)-2-fluoro-N-{(3S)-1-[(1S)-1-methyl-2-morpholin-4-yl-2-oxoethyl]-2-oxopyrrolidin-3-yl}ethenesulfonamide]",< 25

# The next lines start with the values.
row,Ki [nM],Structure (SMILES)
1,< 100,"O=C([C@H](c1ccccc1)N1CC[C@H](NS(=O)(=O)CCc2ccc(Cl)s2)C1=O)N1CCOCC1 [Example 69, 2-(5-chloro-2-thienyl)-N-{(3S)-1-[(1S)-2-(4-morpholinyl)-2-oxo-1-phenylethyl]-2-oxo-3-pyrrolidinyl}ethanesulfonamide]"
2,< 100,"N#CC[C@@H](C(=O)N1CCOCC1)N1CC[C@H](NS(=O)(=O)CCc2ccc(Cl)s2)C1=O [Example 76, 2-(5-chloro-2-thienyl)-N-{(3S)-1-[(1S)-1-(cyanomethyl)-2-(4-morpholinyl)-2-oxoethyl]-2-oxo-3-pyrrolidinyl}ethanesulfonamide]"
3,< 25,"C[C@@H](C(=O)N1CCOCC1)N1CC[C@H](NS(=O)(=O)CCc2ccc(Br)cc2)C1=O [Example 33, 2-(4-bromophenyl)-N-{(3S)-1-[(1S)-1-methyl-2-morpholin-4-yl-2-oxoethyl]-2-oxopyrrolidin-3-yl}ethanesulfonamide]"
4,< 10,"O=C([C@H](Cc1cccnc1)N1CC[C@H](NS(=O)(=O)CCc2ccc(Cl)s2)C1=O)N1CCOCC1 [Example 91, 2-(5-chloro-2-thienyl)-N-{(3S)-1-[(1S)-2-(4-morpholinyl)-2-oxo-1-(3-pyridinylmethyl)ethyl]-2-oxo-3-pyrrolidinyl}ethanesulfonamide]"
5,< 50,"C[C@@H](C(=O)N1CCOCC1)N1CC[C@H](NS(=O)(=O)CCc2ccc(Cl)cc2)C1=O [Example 4, 2-(4-chlorophenyl)-N-{(3S)-1-[(1S)-1-methyl-2-morpholin-4-yl-2-oxoethyl]-2-oxopyrrolidin-3-yl}ethanesulfonamide]"
